“Also recorded” adds a separate entry of the source.
Columns and labels:
[1] = system: defensive withdrawal behavior; details: 20 mg/kg i.p.; cited from earlier work
[2] = system: intracerebroventricular CRF-induced anxiogenic-like behavior; details: 20 mg/kg i.p.; cited from earlier work
[3] = cLogP, Advanced Chemistry Development Software Solaris V4.67; details: from cLogP
[4] = cited from earlier work
[5] = system: ethanol self-administration; details: cited from earlier work
[6] = system: cocaine self-administration; assay: Cocaine self-administration in short access (ShA) and long access (LgA) rats; assay type: in vivo, rat
plasma ACTH = details: 20 mg/kg i.p.; cited from earlier work
[7] = in vivo; cited from earlier work
[8] = system: cocaine self-administration; details: 30 minute pretreatment; limited (2 hour) daily drug access; cited from earlier work

more hydrophobic than MPZP (fold) [3]: ~30,000 fold
more hydrophobic than MPZP (orders) [3]: approximately 4.5 orders
SMILES: CCCCN(CC)c1nc(C)nc2c1c(C)c(C)n2-c1c(C)cc(C)cc1C.Cl [antalarmin, N-Butyl-N-ethyl-2,5,6-trimethyl-7-(2,4,6-trimethyl-phenyl)-7H-pyrrolol[2,3-d]pyrimidin-4-amine hydrochloride]
spontaneous defensive withdrawal behavior [1]: inhibit
intracerebroventricular CRF-induced anxiogenic-like behavior in the elevated plus maze [2]: inhibit
aqueous solubility [4]: poor
escalated ethanol intake ([5]; ethanol-dependent rats, acute withdrawal, 20 mg/kg i.p.): dose-dependently reduced
ethanol self-administration ([5]; nondependent rats): did not influence
slope of linear trend dose function on cocaine intake ([6]; LgA rats): −0.32
decrease of cocaine intake compared to vehicle pretreatment ([6]; LgA rats, 25 mg/kg i.p., 80 minutes before 1 hour session): 13.3%
cocaine intake compared with vehicle ([6]; LgA rats, 25 mg/kg i.p., hydrochloride, 25 mg/kg): significant decrease; also recorded: significantly decreased
slope of linear trend dose function on cocaine intake ([6]; ShA rats): 0.01394
cocaine intake compared to vehicle pretreatment ([6]; ShA rats, antalarmin 6.25-25 mg/kg i.p., hydrochloride): no dose significantly altered cocaine intake; also recorded: without significantly altering
CRF-induced increases in plasma ACTH levels (plasma ACTH): blocked
bioavailability [7]: low
dose-response function of cocaine self-administration [8]: did not alter

Reference: patent publication US20100249138A1, “MPZP: A SMALL MOLECULE CORTICOTROPIN-RELEASING FACTOR TYPE 1 RECEPTOR (CRF1) ANTOGONIST” (priority 2007, published 2010)
